Several values for one entry are separate records, joined by “and”; a condition that tells them apart may be missing. Identical values can stand only once. Inconclusive results and toxic doses are left out.

This assay has as its system BDF1 mice, P388 leukemia ip, median survival T/C. The assay can be described thus: NCI In Vivo Anticancer Drug Screen. Data for tumor model P388 Leukemia (intraperitoneal) in B6D2F1 (BDF1) mice. As to conditions: endpoint: median survival time, higher = longer survival. The essentials:
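Survival ratio, drug arm over vehicle arm, in mice with a transplanted tumour.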

[1] abbreviates: dose: 100.0 mg/kg/injection, schedule: Q01DX009 (ip), vehicle: saline with Tween-80.
The mark [2] stands for this setting: dose: 200.0 mg/kg/injection, schedule: Q01DX009 (ip), vehicle: saline with Tween-80.
Setting [3] is: dose: 100.0 mg/kg/injection, schedule: Q04DX003 (ip), vehicle: saline.
The mark [4] stands for this setting: dose: 50.0 mg/kg/injection, schedule: Q04DX003 (ip), vehicle: saline with Tween-80.
The mark [5] stands for this setting: dose: 12.5 mg/kg/injection, schedule: Q01DX009 (ip), vehicle: Klucel (hydroxypropylcellulose) (HPC).
[6] abbreviates: dose: 25.0 mg/kg/injection, schedule: Q01DX009 (ip), vehicle: Klucel (hydroxypropylcellulose) (HPC).
The mark [7] stands for this setting: dose: 50.0 mg/kg/injection, schedule: Q01DX009 (ip), vehicle: Klucel (hydroxypropylcellulose) (HPC).
[8] abbreviates: dose: 100.0 mg/kg/injection, schedule: Q04DX003 (ip), vehicle: saline sonified.
The mark [9] stands for this setting: dose: 200.0 mg/kg/injection, schedule: Q04DX003 (ip), vehicle: saline sonified.
Where [10] appears, read: dose: 100.0 mg/kg/injection, schedule: Q04DX003 (ip), vehicle: saline with Tween-80.
[11] abbreviates: dose: 200.0 mg/kg/injection, schedule: Q04DX003 (ip), vehicle: saline with Tween-80.
[12] abbreviates: dose: 400.0 mg/kg/injection, schedule: Q04DX003 (ip), vehicle: saline with Tween-80.
[13] abbreviates: dose: 50.0 mg/kg/injection, schedule: Q01DX009 (ip), vehicle: saline.
[14] abbreviates: dose: 100.0 mg/kg/injection, schedule: Q01DX009 (ip), vehicle: saline.
Setting [15] is: dose: 100.0 mg/kg/injection, schedule: Q04DX003 (ip), vehicle: Klucel (hydroxypropylcellulose) (HPC).
Where [16] appears, read: dose: 400.0 mg/kg/injection, schedule: Q04DX003 (ip), vehicle: Klucel (hydroxypropylcellulose) (HPC).

In the case of `CSC(=O)OCC1=CC2OC(=O)C3=COC(OC4OC(CO)C(O)C(O)C4O)C1C32` (stereo not given), the T/C was 101 % of control (dose: 2.0 mg/kg/injection, schedule: Q01DX009 (ip), vehicle: saline with Tween-80); 101 % of control (dose: 4.0 mg/kg/injection, schedule: Q01DX009 (ip), vehicle: saline with Tween-80); 111 % of control (dose: 16.0 mg/kg/injection, schedule: Q01DX009 (ip), vehicle: saline with Tween-80).

Regarding `Cc1cc2nc(Oc3ccccc3)nc(=O)n2o1`, the T/C reads like this: (dose: 50.0 mg/kg/injection, schedule: Q01DX009 (ip), vehicle: saline with Tween-80) 100 % of control and 117 % of control; under setting [1], 106 % of control and 123 % of control; under setting [2], 112 % of control and 121 % of control.

In the case of `O=[N+]([O-])c1ccc(C[Se]c2ncnc3c2ncn3C2OC(CO)C(O)C2O)cc1` (stereo not given), the T/C (dose: 12.5 mg/kg/injection, schedule: Q04DX003 (ip), vehicle: saline) was 109 % of control; the T/C (dose: 25.0 mg/kg/injection, schedule: Q04DX003 (ip), vehicle: saline) is 103 % of control; the T/C (dose: 50.0 mg/kg/injection, schedule: Q04DX003 (ip), vehicle: saline) was 96 % of control; the T/C under setting [3] was 105 % of control.

As to `COc1cc(C=Nc2cc(Cl)c(O)c(Cl)c2)ccc1N(CCCl)CCCl`, the T/C is, setting by setting: (dose: 5.0 mg/kg/injection, schedule: Q04DX003 (ip), vehicle: saline with Tween-80) 181 % of control; (dose: 8.0 mg/kg/injection, schedule: Q04DX003 (ip), vehicle: saline with Tween-80) 222 % of control; (dose: 12.0 mg/kg/injection, schedule: Q04DX003 (ip), vehicle: saline with Tween-80) 231 % of control and 211 % of control; (dose: 12.5 mg/kg/injection, schedule: Q04DX003 (ip), vehicle: saline with Tween-80) 111 % of control; (dose: 17.0 mg/kg/injection, schedule: Q04DX003 (ip), vehicle: saline with Tween-80) 196 % of control; (dose: 25.0 mg/kg/injection, schedule: Q04DX003 (ip), vehicle: saline with Tween-80) 215 % of control. Moreover, the T/C by setting is: (dose: 37.5 mg/kg/injection, schedule: Q04DX003 (ip), vehicle: saline with Tween-80) 230 % of control; under setting [4], 100 % of control.

As to `O=[N+]([O-])c1cnc2ccnn2c1`, the T/C is, setting by setting: under setting [5], 100 % of control; under setting [6], 100 % of control; under setting [7], 100 % of control; (dose: 100.0 mg/kg/injection, schedule: Q01DX009 (ip), vehicle: Klucel (hydroxypropylcellulose) (HPC)) 95 % of control.

In the case of `O=C(Nc1cccc(C2=NCCN2)c1)c1ccc(C(=O)Nc2cccc(C3=NCCN3)c2)c(Cl)c1`, the T/C by setting is: (dose: 1.0 mg/kg/injection, schedule: Q01DX010 (ip), vehicle: water) 100 % of control; (dose: 2.0 mg/kg/injection, schedule: Q01DX010 (ip), vehicle: water) 100 % of control; (dose: 4.0 mg/kg/injection, schedule: Q01DX010 (ip), vehicle: water) 100 % of control.

`Cc1ccc(OCC(O)CN2CCN(c3ccc(Cl)cc3)CC2)cc1` (stereo not given): the T/C was 100 % of control under setting [8]; 100 % of control under setting [9]; 100 % of control (dose: 400.0 mg/kg/injection, schedule: Q04DX003 (ip), vehicle: saline sonified).

With `O=C1C(N2CCOCC2)=Cc2cccc3cccc1c23`, the T/C reads like this: under setting [4], 99 % of control; under setting [1], 101 % of control; under setting [10], 96 % of control; under setting [2], 90 % of control; under setting [11], 88 % of control; under setting [12], 99 % of control.

Take `O=C1C=CC(=O)N1c1ccc(Cl)cc1`: the T/C is 114 % of control (dose: 1.25 mg/kg/injection, schedule: Q04DX003 (ip), vehicle: Klucel (hydroxypropylcellulose) (HPC)); 159 % of control (dose: 2.5 mg/kg/injection, schedule: Q01DX009 (ip), vehicle: Klucel (hydroxypropylcellulose) (HPC)); 122 % of control (dose: 2.5 mg/kg/injection, schedule: Q04DX003 (ip), vehicle: Klucel (hydroxypropylcellulose) (HPC)); 108 % of control (dose: 5.0 mg/kg/injection, schedule: Q04DX003 (ip), vehicle: Klucel (hydroxypropylcellulose) (HPC)); 107 % of control (dose: 10.0 mg/kg/injection, schedule: Q04DX003 (ip), vehicle: Klucel (hydroxypropylcellulose) (HPC)); 115 % of control (dose: 20.0 mg/kg/injection, schedule: Q01DX009 (ip), vehicle: Klucel (hydroxypropylcellulose) (HPC)).

For `CC1CC(C)(C)N=C(C(C)CC(C)(C)C)O1` (stereo not given), the T/C is 90 % of control (dose: 50.0 mg/kg/injection, schedule: Q04DX003 (ip), vehicle: saline sonified); 100 % of control under setting [8]; 100 % of control under setting [9].

With `CN(CCCCN(C)CCOS(C)(=O)=O)CCOS(C)(=O)=O`, the T/C by setting is: (dose: 0.8 mg/kg/injection, schedule: Q04DX003 (ip), vehicle: saline) 177 % of control; (dose: 1.2 mg/kg/injection, schedule: Q04DX003 (ip), vehicle: saline) 172 % of control; (dose: 1.8 mg/kg/injection, schedule: Q04DX003 (ip), vehicle: saline) 154 % of control.

`CC1=NC(C(=O)O)C(=O)O1` (stereo not given): the T/C under setting [13] is 109 % of control; the T/C under setting [14] is 104 % of control; the T/C under setting [3] is 95 % of control; the T/C (dose: 200.0 mg/kg/injection, schedule: Q01DX009 (ip), vehicle: saline) was 100 % of control; the T/C (dose: 200.0 mg/kg/injection, schedule: Q04DX003 (ip), vehicle: saline) is 100 % of control; the T/C (dose: 400.0 mg/kg/injection, schedule: Q04DX003 (ip), vehicle: saline) was 87 % of control.

With `COc1cc([N+](=O)[O-])c(C)cc1NCc1ccc(OC)c(OC)c1`, the T/C (dose: 25.0 mg/kg/injection, schedule: Q01DX009 (ip), vehicle: saline) was 100 % of control; the T/C under setting [13] was 99 % of control; the T/C under setting [14] was 94 % of control.

`C1=CC2(OCCO2)C2CC=CC3(OCCO3)C2C1` (stereo not given): the T/C by setting is: under setting [5], 114 % of control; under setting [6], 110 % of control and 123 % of control; (dose: 200.0 mg/kg/injection, schedule: Q01DX009 (ip), vehicle: Klucel (hydroxypropylcellulose) (HPC)) 117 % of control.

For the molecule `NC(=S)N/N=C\c1nccc2c(C(F)(F)C(F)(F)C(F)(F)F)cccc12`, the T/C was 110 % of control under setting [10], 98 % of control under setting [11] and 88 % of control under setting [12].

In the case of `Cc1ccc([N+](=O)[O-])cc1N=C=O`, the T/C is 96 % of control under setting [5]; 100 % of control under setting [6]; 96 % of control under setting [7]; 91 % of control under setting [15]; 91 % of control under setting [16].

Take `CC(=O)c1cnn(-c2ccccc2)c1C`: the T/C is 104 % of control (dose: 100.0 mg/kg/injection, schedule: Q01DX001 (ip), vehicle: Klucel (hydroxypropylcellulose) (HPC)); 105 % of control (dose: 100.0 mg/kg/injection, schedule: Q01DX009 (ip), vehicle: other); 104 % of control under setting [15]; 109 % of control (dose: 200.0 mg/kg/injection, schedule: Q01DX001 (ip), vehicle: Klucel (hydroxypropylcellulose) (HPC)); 100 % of control (dose: 200.0 mg/kg/injection, schedule: Q01DX009 (ip), vehicle: other); 86 % of control (dose: 200.0 mg/kg/injection, schedule: Q04DX003 (ip), vehicle: Klucel (hydroxypropylcellulose) (HPC)). The T/C is 109 % of control (dose: 400.0 mg/kg/injection, schedule: Q01DX001 (ip), vehicle: Klucel (hydroxypropylcellulose) (HPC)); 100 % of control (dose: 400.0 mg/kg/injection, schedule: Q01DX009 (ip), vehicle: other); 90 % of control under setting [16].

(Values after PubChem BioAssay AID328 (DTP/NCI, 2004).)
